From publication PMC9115112, “A2B adenosine receptor antagonists rescue lymphocyte activity in adenosine-producing patient-derived cancer models” (Journal for Immunotherapy of Cancer, 2022)

Experiments:
human A1AR = target: T1, human A1AR (Homo sapiens, UniProt P30542); assay: Radioligand binding, human A1AR ([3H]DPCPX, transfected CHO cells); settings: displacement of [3H]DPCPX, transfected CHO cells, n=3, racemic mixtures; read-out: Ki hA1
T1 construct: expressed in transfected cells; host or cells: CHO
T1 sequence (P30542 1-326): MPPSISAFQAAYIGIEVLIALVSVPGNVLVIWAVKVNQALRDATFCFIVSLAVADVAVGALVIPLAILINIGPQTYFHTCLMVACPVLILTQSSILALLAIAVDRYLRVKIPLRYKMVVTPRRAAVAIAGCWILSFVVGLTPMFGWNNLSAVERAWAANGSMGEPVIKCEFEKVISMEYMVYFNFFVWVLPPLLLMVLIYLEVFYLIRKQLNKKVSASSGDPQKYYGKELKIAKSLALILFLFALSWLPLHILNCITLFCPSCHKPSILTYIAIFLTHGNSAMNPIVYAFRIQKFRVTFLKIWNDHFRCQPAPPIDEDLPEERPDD
Protocol: (§1) The affinity and selectivity profiles of the ligands obtained was studied in vitro, radioligand binding assays, at the four human specific ARs subtypes, using experimental protocols previously described.[28–30] All ligands were prepared and tested as racemic mixtures. […] Non-specific binding was determined in the presence of R-PIA 10 µM for A1AR, NECA 50 µM for A2AAR, NECA 400 μΜ for A2BAR and R-PIA 100 μΜ for A3AR.

human A2AAR = target: T2, human A2AAR (Homo sapiens, UniProt P29274); assay: Radioligand binding, human A2AAR ([3H]ZM241385, transfected HeLa cells); settings: displacement of [3H]ZM241385, human HeLa cells, n=3, racemic mixtures; read-out: Ki hA2A
T2 construct: expressed in transfected cells; host or cells: HeLa
Protocol: as §1

human A2BAR = target: T3, human A2BAR (Homo sapiens, UniProt P29275); assay: Radioligand binding, human A2BAR ([3H]DPCPX, transfected HEK-293 cells); settings: displacement of [3H]DPCPX, human HEK-293 cells, n=3, racemic mixtures; read-out: Ki hA2B
T3 construct: expressed in transfected cells; host or cells: HEK-293
T3 sequence (P29275 1-332): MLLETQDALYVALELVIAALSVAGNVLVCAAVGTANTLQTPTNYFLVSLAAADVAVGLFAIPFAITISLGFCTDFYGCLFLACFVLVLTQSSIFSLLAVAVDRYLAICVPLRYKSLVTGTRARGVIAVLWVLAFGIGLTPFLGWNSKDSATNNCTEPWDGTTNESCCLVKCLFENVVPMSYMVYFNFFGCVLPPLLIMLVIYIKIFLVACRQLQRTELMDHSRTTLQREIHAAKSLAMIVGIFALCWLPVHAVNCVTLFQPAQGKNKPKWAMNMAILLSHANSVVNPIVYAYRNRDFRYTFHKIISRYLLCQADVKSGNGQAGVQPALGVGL
Protocol: as §1

human A3AR = target: T4, human A3AR (Homo sapiens, UniProt P0DMS8); assay: Radioligand binding, human A3AR ([3H]NECA, transfected HeLa cells); settings: displacement of [3H]NECA, n=3, racemic mixtures, read-out: Ki hA3
T4 construct: expressed in transfected cells; host or cells: HeLa
T4 sequence (P0DMS8 1-318): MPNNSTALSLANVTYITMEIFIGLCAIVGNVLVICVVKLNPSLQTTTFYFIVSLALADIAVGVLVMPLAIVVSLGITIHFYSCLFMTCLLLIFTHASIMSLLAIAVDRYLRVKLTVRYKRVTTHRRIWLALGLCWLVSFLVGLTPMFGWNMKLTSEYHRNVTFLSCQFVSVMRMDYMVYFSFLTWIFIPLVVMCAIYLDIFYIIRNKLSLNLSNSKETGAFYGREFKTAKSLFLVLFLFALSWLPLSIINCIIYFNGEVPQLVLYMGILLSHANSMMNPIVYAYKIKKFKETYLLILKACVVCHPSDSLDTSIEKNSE
Protocol: as §1

T2 sequence (P29274 whole entry): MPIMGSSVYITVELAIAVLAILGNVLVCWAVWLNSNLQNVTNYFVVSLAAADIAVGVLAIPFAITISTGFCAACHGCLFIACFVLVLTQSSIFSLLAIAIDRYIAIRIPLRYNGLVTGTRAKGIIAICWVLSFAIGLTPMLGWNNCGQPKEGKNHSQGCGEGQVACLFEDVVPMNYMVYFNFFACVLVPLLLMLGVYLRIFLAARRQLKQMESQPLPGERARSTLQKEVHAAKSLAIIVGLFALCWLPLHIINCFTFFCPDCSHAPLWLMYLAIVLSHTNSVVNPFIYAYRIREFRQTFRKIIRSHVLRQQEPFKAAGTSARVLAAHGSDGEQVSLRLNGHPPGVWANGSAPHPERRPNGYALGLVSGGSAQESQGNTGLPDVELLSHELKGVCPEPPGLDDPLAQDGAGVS

Ki (human A1AR): > 1000 nM
Ki (human A2AAR): > 1000 nM
Ki (human A2BAR): > 1000 nM
Ki (human A3AR): > 1000 nM
Compound: CC1=C(C(=O)OC(C)C)C(c2ccco2)N2C(=N1)N(Cc1ccccc1F)c1ccccc12 (stereo not shown) [ISAM-R56B]
